{"source": "patent US20230097253A1", "about": "“NOVEL QUINAZOLINE COMPOUND AS THERAPEUTIC AGENT FOR METABOLIC DISORDERS” (BIOWAY., INC, priority 2020, published 2023)", "key": {"MRC5 cells": {"test_system": "MRC5 cells", "experiment": "Cytotoxicity in normal cells, CCK8 analysis", "format": "cell-based", "conditions": "0.5-100 μM, 24 hours, CCK8, compared with the control group, FIG. 2", "procedure": "For confirmation of cytotoxicity in normal cells, MRC (i.e., normal lung cells) were cultured in an incubator set at 37° C. with 95% humidity and 5% CO2.\nAdditionally, MRC5 cells were proliferated to a confluency of 70-80% on a plate using a growth medium (Minimum Essential Medium (MEM) supplemented with 10% fetal bovine serum (FBS), 100 U/ml of penicillin, and 100 μg/ml of streptomycin), and then used for the experiment.\nIn order to confirm the cytotoxicity of the compound according to an embodiment of the present invention, CCK8 analysis was performed for the prepared MRC5 cells.\nFirst, after culturing MRC5 cells to 70-80% confluency in a 24-well plate, the test material was diluted in a culture medium except for the control group and treated with 0.5 μM, 2.5 μM, 10 μM, 20 μM, 40 μM, 80 μM, and 100 μM.\nAfter 24 hours of treatment of the test material, CCK8 solution was dispensed 10 μL per well and incubated for 2 hours in a state where the light was blocked.\nAfter 2 hours, 200 μL of the culture solution from each well was transferred to a 96 well plate and absorbance was measured at 450 nm."}, "[1]": {"test_system": "steatosis-induced Huh7 cells", "experiment": "Protein expression levels (western blot) for MOA confirmation in steatosis-induced liver cells", "format": "cell-based", "conditions": "250 μM PA, 0.25-40 μM compound, 24 hours, FIG. 1", "procedure": "An experiment to confirm the expression levels of proteins in steatosis-induced liver cells was conducted as follows.\nTo determine the protein expression level for MOA confirmation in steatosis-induced liver cells BW-3290 of the present invention, Huh7 cells were cultured in an incubator set at 37° C., 95% humidity, and 5% CO2.\nAdditionally, Huh7 cells were proliferated to a confluency of 80-90% on a plate using a growth medium (Dulbecco's modified Eagle's medium (DMEM) supplemented with 10% fetal bovine serum (FBS), 100 U/ml of penicillin, and 100 μg/ml of streptomycin), and then used for the experiment.\nTo induce steatosis in Huh-7 cells in each well except for control cells, the Huh-7 cells were treated with PA bound to 2% BSA at a concentration of 250 μM except for the control, and the control cells were pretreated with 2% BSA without FA.\nThe cells in each well were treated with the compounds of the present invention, R- or S-form of BW-3290, 0.25 μM, 0.5 μM, 1 μM, 5 μM, 10 μM, 20 μM, and 40 μM and then cultured for 24 hours. The control cells and PA treated cells were treated with DMSO. All media were aspirated and the cells were gently washed 3 times with cold PBS.\nA cold lysis buffer containing 150 mM sodium chloride (NaCl), 5 mM ethylenediaminetetraacetic acid (EDTA), pH 8.0, […] 4-(2-hydroxyethyl)-1-piperazineethanesulfonic acid (HEPES), 1% nonylphenoxypolyethoxylethanol (NP-40), 2 μg/mL aprotinin, 1 μM pepstatin A, 10 μM leupeptin, 1 mM sodium fluoride (NaF), 0.2 mM sodium orthovanadate ([…]), and 1 μM phenylmethylsulfonyl fluoride (PMSF) was added thereto.\nA whole cell lysate was collected and gently pipetted at least 10 times to ensure complete lysis. The sample was incubated on ice for 20 minutes and centrifuged 4° C. at 13,000 rpm, for 20 minutes. The supernatant was collected, 5× sodium dodecyl sulfate (SDS) sample buffer containing 50 mM Tris-CI (pH 6.8), 2% SDS, 0.1% bromopheol blue, and 10% glycerol was added to the sample, and boiled at 95° C. for 5 minutes.\nThe wells of 10% SDS-polyacrylamide gel electrophoresis (SDS-PAGE) were loaded with the same amount of a protein along with the molecular weight marker. The gel was electrophoresed at 100 V for 30 minutes in an electrophoresis chamber (Bio-Rad Laboratories, Hercules, Calif., USA).\nA polyvinylidene fluoride (PVDF) membrane (MilliporeSigma, Burlington, Mass., USA) was activated with methanol (MeOH) for 1 minute and washed with a transfer buffer containing 25 mM Tris, 190 mM glycine, and 20% MeOH. The gel was placed in the transfer buffer for 10 minutes.\nThe transfer sandwich (in the order of paper, gel, membrane, and paper) was assembled and it was checked whether no air bubbles were trapped in the transfer sandwich. The transfer sandwich was placed in a transfer tank (Bio-Rad Laboratories) and ice cubes were placed in the transfer tank to prevent the transfer buffer from being heated. The protein was transferred from the gel to the PVDF membrane at 100 V for 30 minutes.\nAfter washing the PVDF membrane with distilled water, the membrane was blocked for 1 hour at room temperature with a blocking buffer prepared by 5% skim milk (Difco Laboratories, Franklin Lakes, N.J., USA) in TBST containing 0.1% tween 20 (TBST, Sigma-Aldrich).\nThe membrane was incubated in a buffer in which the primary antibody was appropriately diluted. The membrane of fatty acid synthase (FAS), phosphor-AMP-activated protein kinase (p-AMPK), SIRT1, and SIRT3 was washed 3 times with TBST for 5 minutes each.\nThe membrane was incubated with a recommended dilution of horseradish peroxidase (HRP)-conjugated secondary mouse antibody in blocking buffer at room temperature for 1 hour.\nThe membrane was washed 5 times with TBST for 5 minutes each. Excess reagent was removed and the membrane was covered with a clear plastic wrap.\nECL prime western blotting detection reagent (GE Healthcare, Chicago, Ill., USA) was applied according to the manufacturer's recommendations. […]"}}, "data": [{"smiles": "CC(C)C(Nc1ncnc2nc[nH]c12)c1nc2cccc(Cl)c2c(=O)n1-c1ccccc1", "note": "(racemic) [RS-form, 2-(1-((7H-purin-6-yl)amino)-2-methylpropyl)-5-chloro-3-phenylquinazolin-4(3H)-one]", "values": [{"measurement": "cytotoxicity in normal cells", "setting": "MRC5 cells", "result": "showed some toxicity"}]}, {"smiles": "CC(C)[C@@H](Nc1ncnc2nc[nH]c12)c1nc2cccc(Cl)c2c(=O)n1-c1ccccc1", "note": "[R-form of BW-3290, (R)-2-(1-((7H-purin-6-yl)amino)-2-methylpropyl)-5-chloro-3-phenylquinazolin-4(3H)-one]", "values": [{"measurement": "SIRT1 protein expression level", "setting": "[1]", "result": "increased"}, {"measurement": "SIRT3 protein expression level", "setting": "[1]", "result": "increased"}, {"measurement": "level of FAS (fat synthesis protein)", "setting": "[1]", "result": "decreased in a concentration-dependent manner"}, {"measurement": "p-AMPK protein expression level", "setting": "[1]", "result": "increased"}, {"measurement": "cytotoxicity in normal cells", "setting": "MRC5 cells", "result": "did not show toxicity"}]}, {"smiles": "CC(C)[C@H](Nc1ncnc2nc[nH]c12)c1nc2cccc(Cl)c2c(=O)n1-c1ccccc1", "note": "[S-form, (S)-2-(1-((7H-purin-6-yl)amino)-2-methylpropyl)-5-chloro-3-phenylquinazolin-4(3H)-one]", "values": [{"measurement": "SIRT1 protein expression level", "setting": "[1]", "result": "increased"}, {"measurement": "SIRT3 protein expression level", "setting": "[1]", "result": "increased"}, {"measurement": "p-AMPK protein expression level", "setting": "[1]", "result": "increased"}, {"measurement": "cytotoxicity in normal cells", "setting": "MRC5 cells", "result": "showed some toxicity"}]}]}
